# According to US20100278925A1, “FORMULATIONS OF ORGANO-PLATINIC COMPOUNDS IN THE PRESENCE OF ASSOCIATIVE POLYMERS, PRODUCTS THUS OBTAINED AND USES THEREOF” (Coatex S.A. S., priority 2007, published 2010):
# Test: Reference tests: oxaliplatin added into water without polymer or with non-associative polymer
# Type: physicochemical
# Settings: oxaliplatin 10.5 g/L in water, pH 7, without polymer
# Excerpt: This test is a reference which consists of adding the oxaliplatin into water, without the associative water-soluble polymer.
# This test is a reference which consists of adding the oxaliplatin into water, […].
# Next, 1.9 g of a water-soluble polymer with 30% solids content, said polymer being made up 36.9% by weight of methacrylic acid and 63.1% by weight of ethyl acrylate.
structure (smiles),measurement,value
O=C1[O][Pt]2([NH][C@@H]3CCCC[C@H]3[NH]2)[O]C1=O [oxaliplatin],Appearance of the result,powder suspended in the water
